# Experimental data reported in ChEMBL document CHEMBL5661943, “ASAP - In vitro antiviral effect” (2024).
# Columns and labels:
# [1] = system: dengue virus type 2; assay: Functional assay to measure dose dependent changes in antiviral-drug inhibitory efficacy against Dengue virus type 2 New Guinea C in Vero E6 miRFP670 cells (cotreated with P-gp inhibitor, CP100356). Cells are treated with antiviral candidates that are serially diluted, following infection, cells are fixed. EC50 is reported via analysis of fluorescence intensity using high-content imager. The …; type: organism-based, Chlorocebus sabaeus, Vero C1008; settings: Dengue virus
# [2] = system: Zika virus; assay: Functional CPE-based assay to measure dose dependent changes in antiviral-drug inhibitory efficacy against Zika virus MR766 in Vero E6 miRFP670 cells (cotreated with P-gp inhibitor, CP100356). Cells are treated with antiviral candidates that are serially diluted. EC50 is reported via analysis of MTS assay as a readout of CPE. The assay has been performed by KU Leuven.; type: organism-based, Chlorocebus sabaeus, Vero C1008; settings: Zika virus
structure (smiles),measurement,setting,value
C[C@@]1(O)[C@H](O)[C@@H](CO)O[C@H]1n1ccc(N)nc1=O,EC50,[1]; Vero C1008,116 µM
same,EC90,"[1]; Vero C1008, Baseline response 0 %, Hill slope -2.692, Maximum measured 107.888 %, Maximum response 100 %, Minimum measured 21.977 %, P-gp concentration 500 nM, R squared 0.958, P-gp inhibitor CP100356",> 200 µM
C=C1C[C@H](c2cc(Cl)cc(NC(=O)OCc3ccccc3)c2)[C@@H](c2cccc(-c3nn[nH]n3)c2)C1,EC50,[1]; Vero C1008,> 6.25 µM
same,EC90,"[1]; Vero C1008, Maximum measured 124.641 %, Minimum measured 90.066 %, P-gp concentration 500 nM, P-gp inhibitor CP100356",> 6.25 µM
CN(C)C(=O)c1cc(CN)cc([C@@H]2C[C@H]2c2cc(Cl)cc(NC(=O)OCc3ccccc3)c2)c1,EC50,[1]; Vero C1008,2 µM
same,EC90,"[1]; Vero C1008, Baseline response 0 %, Hill slope -4.597, Maximum measured 117.075 %, Maximum response 100 %, Minimum measured 13.909 %, P-gp concentration 500 nM, R squared 0.926, P-gp inhibitor CP100356",> 3.12 µM
CC(=Cc1cc(Cl)cc(NC(=O)OCc2ccccc2)c1)c1cccc(CN)c1,EC50,[1]; Vero C1008,> 1.56 µM
same,EC90,"[1]; Vero C1008, Maximum measured 159.566 %, Minimum measured 81.442 %, P-gp concentration 500 nM, P-gp inhibitor CP100356",> 1.56 µM
C=CC[C@H](Nc1cc(Cl)cc(NC(=O)OCc2ccccc2)c1)c1cccc(CN)c1,EC50,[1]; Vero C1008,0.546 µM
same,EC90,"[1]; Vero C1008, Baseline response 0 %, EC90 CI (lower) 0.029 uM, EC90 CI (upper) 0.719 uM, Hill slope -1.654, Maximum measured 56.301 %, Maximum response 100 %, Minimum measured 0.945 %, P-gp concentration 500 nM, R squared 0.693, P-gp inhibitor CP100356",2.06 µM
N[C@H]1Cc2ccc(NC(=O)c3cc(Cl)cc(NC(=O)OCc4ccccc4)c3)cc2C1,EC50,[1]; Vero C1008,1.64 µM
same,EC90,"[1]; Vero C1008, Baseline response 0 %, EC90 CI (lower) 0.187 uM, EC90 CI (upper) 8.327 uM, Hill slope -7.929, Maximum measured 105.944 %, Maximum response 100 %, Minimum measured 3.386 %, P-gp concentration 500 nM, R squared 0.874, P-gp inhibitor CP100356",2.17 µM
NCc1ccc2c(c1)[C@H]1OCCC[C@H]1[C@H](c1cc(Cl)cc(NC(=O)OCc3ccccc3)c1)N2,EC50,[1]; Vero C1008,1.9 µM
same,EC90,"[1]; Vero C1008, Baseline response 0 %, EC90 CI (lower) 1.087 uM, EC90 CI (upper) 1.673 uM, Hill slope -6.376, Maximum measured 104.423 %, Maximum response 100 %, Minimum measured 0.619 %, P-gp concentration 500 nM, R squared 0.968, P-gp inhibitor CP100356",2.69 µM
COc1ccc(S(=O)(=O)Nc2cc(F)c(Cl)cc2C(=O)NCC(C)C)cc1,EC50,[1]; Vero C1008,5.86 µM
same,EC90,[1]; Vero C1008,6.67 µM
O=C(Nc1cc(Cl)cc([C@H]2C[C@@H]2c2cccc(-c3nnn[nH]3)c2)c1)OCc1ccccc1,EC50,[1]; Vero C1008,> 25 µM
same,EC90,"[1]; Vero C1008, Maximum measured 174.938 %, Minimum measured 87.593 %, P-gp concentration 500 nM, P-gp inhibitor CP100356",> 25 µM
C=CC[C@H]1NCc2cc(NC(=O)c3cc(Cl)cc4[nH]ncc34)ccc21,EC50,[2]; Vero C1008,> 50 µM
same,EC90,"[2]; Vero C1008, Baseline response 0 %, Hill slope 0.168, Maximum measured 60.303 %, Maximum response 100 %, Minimum measured -6.598 %, P-gp concentration 500 nM, R squared 0.022, P-gp inhibitor CP100356",> 50 µM
CC1(C)NCc2cc(NC(=O)c3cc(F)cc4[nH]ncc34)ccc21,EC50,[2]; Vero C1008,> 50 µM
same,EC90,"[2]; Vero C1008, Maximum measured -0.426 %, Minimum measured -7.479 %, P-gp concentration 500 nM, P-gp inhibitor CP100356",> 50 µM
O=C(O)Cn1ncc2cc(-c3cc(Cl)cc(NC(=O)OCc4ccccc4)c3)ccc21,EC50,[1]; Vero C1008,> 50 µM
same,EC90,"[1]; Vero C1008, Maximum measured 125.945 %, Minimum measured 96.066 %, P-gp concentration 500 nM, P-gp inhibitor CP100356",> 50 µM
NCc1cccc(-c2csc3cc(C(=O)Nc4ccc5c(c4)CNC5)ccc23)c1,EC50,[2]; Vero C1008,2.4 µM
same,EC90,"[2]; Vero C1008, Baseline response 0 %, Hill slope 1.279, Maximum measured 60.824 %, Maximum response 100 %, Minimum measured 10.172 %, P-gp concentration 500 nM, R squared 0.942, P-gp inhibitor CP100356",> 3.12 µM
O=C(Nc1cc(Cl)cc(CNc2cccc(-c3nn[nH]n3)c2)c1)OCc1ccccc1,EC50,[1]; Vero C1008,> 25 µM
same,EC90,"[1]; Vero C1008, Maximum measured 175.327 %, Minimum measured 92.337 %, P-gp concentration 500 nM, P-gp inhibitor CP100356",> 25 µM
O=C(Nc1cc(Cl)cc([C@H](C#CCO)Nc2ccc(-c3nn[nH]n3)cc2)c1)OCc1ccccc1,EC50,[1]; Vero C1008,> 50 µM
same,EC90,"[1]; Vero C1008, Maximum measured 120.318 %, Minimum measured 85.942 %, P-gp concentration 500 nM, P-gp inhibitor CP100356",> 50 µM
CC(=Cc1cccc(CN)c1)c1cc(Cl)cc(NC(=O)OCc2ccccc2)c1,EC50,[1]; Vero C1008,> 6.25 µM
same,EC90,"[1]; Vero C1008, Maximum measured 157.677 %, Minimum measured 102.187 %, P-gp concentration 500 nM, P-gp inhibitor CP100356",> 6.25 µM
O=C(Nc1ccc2c(c1)CNC2)c1cc(Cl)cc2[nH]c(-c3cccc(F)c3)nc12,EC50,[2]; Vero C1008,> 50 µM
same,EC90,"[2]; Vero C1008, Baseline response 0 %, Hill slope 0.814, Maximum measured 40.434 %, Maximum response 100 %, Minimum measured 0.118 %, P-gp concentration 500 nM, R squared 0.904, P-gp inhibitor CP100356",> 50 µM
N[C@H]1CC[C@H](c2ccc(NC(=O)c3cc(Cl)cc(NC(=O)OCc4ccccc4)c3)cc2)C1,EC50,[1]; Vero C1008,1.49 µM
same,EC90,"[1]; Vero C1008, Baseline response 0 %, Hill slope -16.959, Maximum measured 155.273 %, Maximum response 100 %, Minimum measured 29.767 %, P-gp concentration 500 nM, R squared 0.495, P-gp inhibitor CP100356",> 1.56 µM
CNC(=O)[C@H](Nc1cccc(CN)c1)c1cc(Cl)cc(NC(=O)OCc2ccccc2)c1,EC50,[1]; Vero C1008,7.81 µM
same,EC90,"[1]; Vero C1008, Baseline response 0 %, EC90 CI (lower) 4.909 uM, EC90 CI (upper) 7.205 uM, Hill slope -8.054, Maximum measured 105.221 %, Maximum response 100 %, Minimum measured 2.373 %, P-gp concentration 500 nM, R squared 0.934, P-gp inhibitor CP100356",10.3 µM
Clc1cccc([C@H](C#Cc2ccccc2)Nc2cccc(-c3nn[nH]n3)c2)c1,EC50,[1]; Vero C1008,> 6.25 µM
same,EC90,"[1]; Vero C1008, Maximum measured 160.53 %, Minimum measured 108.244 %, P-gp concentration 500 nM, P-gp inhibitor CP100356",> 6.25 µM
O=C(Nc1ccc2c(c1)CN[C@H]2C1CC1)c1cc(F)cc2[nH]ncc12,EC50,[2]; Vero C1008,6.28 µM
same,EC90,[2]; Vero C1008,7.09 µM
NCc1ccc([C@H]2C[C@@H]2c2cc(Cl)cc(NC(=O)OCc3ccccc3)c2)cc1,EC50,[1]; Vero C1008,2.72 µM
same,EC90,"[1]; Vero C1008, Baseline response 0 %, Hill slope -3.689, Maximum measured 118.529 %, Maximum response 100 %, Minimum measured 38.173 %, P-gp concentration 500 nM, R squared 0.774, P-gp inhibitor CP100356",> 3.12 µM
C=CC[C@H](Nc1cccc(-c2nn[nH]n2)c1)c1cc(Cl)cc(NC(=O)OCc2ccccc2)c1,EC50,[1]; Vero C1008,< 0.391 µM
same,EC90,"[1]; Vero C1008, Baseline response 0 %, EC90 CI (lower) 0.009 uM, EC90 CI (upper) 0.062 uM, Hill slope -1.268, Maximum measured 19.733 %, Maximum response 100 %, Minimum measured 0.468 %, P-gp concentration 500 nM, R squared 0.944, P-gp inhibitor CP100356",0.74 µM
O=C(Nc1cc(Cl)cc(C(=O)Nc2ccc3c(c2)CCNC3)c1)OCc1ccccc1,EC50,[1]; Vero C1008,> 1.56 µM
same,EC90,"[1]; Vero C1008, Maximum measured 159.578 %, Minimum measured 136.105 %, P-gp concentration 500 nM, P-gp inhibitor CP100356",> 1.56 µM
C[C@H]1NCc2cc(NC(=O)c3cc(F)cc4[nH]ncc34)ccc21,EC50,[2]; Vero C1008,> 50 µM
same,EC90,"[2]; Vero C1008, Baseline response 0 %, Hill slope 1.233, Maximum measured 13.741 %, Maximum response 100 %, Minimum measured -1.755 %, P-gp concentration 500 nM, R squared 0.661, P-gp inhibitor CP100356",> 50 µM
CNC(=O)[C@H](Nc1cc(Cl)cc(NC(=O)OCc2ccccc2)c1)c1cccc(CN)c1,EC50,[1]; Vero C1008,7.19 µM
same,EC90,"[1]; Vero C1008, Baseline response 0 %, EC90 CI (lower) 3.139 uM, EC90 CI (upper) 9.78 uM, Hill slope -8.413, Maximum measured 116.634 %, Maximum response 100 %, Minimum measured 2.553 %, P-gp concentration 500 nM, R squared 0.885, P-gp inhibitor CP100356",9.34 µM
O=C(Nc1ccc2c(c1)CNC2)c1cc(Cl)cc2[nH]c(-c3ccccc3)nc12,EC50,[2]; Vero C1008,> 50 µM
same,EC90,"[2]; Vero C1008, Baseline response 0 %, Hill slope 1.72, Maximum measured 10.819 %, Maximum response 100 %, Minimum measured -5.769 %, P-gp concentration 500 nM, R squared 0.199, P-gp inhibitor CP100356",> 50 µM
N#C[C@H](Nc1cc(Cl)cc(NC(=O)OCc2ccccc2)c1)c1ccc(-c2nn[nH]n2)cc1,EC50,[1]; Vero C1008,> 50 µM
same,EC90,"[1]; Vero C1008, Baseline response 0 %, Hill slope -0.236, Maximum measured 132.412 %, Maximum response 100 %, Minimum measured 19.2 %, P-gp concentration 500 nM, R squared 0.02, P-gp inhibitor CP100356",> 50 µM
O=C(Nc1ccc2c(c1)CNC2)c1cc(Cl)cc(N2CCCC2)c1,EC50,[2]; Vero C1008,> 50 µM
same,EC90,"[2]; Vero C1008, Maximum measured 3.676 %, Minimum measured -16.143 %, P-gp concentration 500 nM, P-gp inhibitor CP100356",> 50 µM
O=C(Nc1cc(Cl)cc(C(=O)Nc2ccc([C@@H]3C[C@H]3C(=O)O)cc2)c1)OCc1ccccc1,EC50,[1]; Vero C1008,> 50 µM
same,EC90,"[1]; Vero C1008, Maximum measured 124.209 %, Minimum measured 92.524 %, P-gp concentration 500 nM, P-gp inhibitor CP100356",> 50 µM
